# Experimental data published in publication PMC3127977, “No relevant cardiac, pharmacokinetic or safety interactions between roflumilast and inhaled formoterol in healthy subjects: an open-label, randomised, actively controlled study” (BMC Clinical Pharmacology, 2011).
# Experiments:
# [1] = Steady-state plasma pharmacokinetics (HPLC-MS/MS) in healthy men; oral roflumilast 500 μg once daily, inhaled formoterol 24 μg twice daily; details: for AUC / Cmax: male, human, plasma, oral; for AUC: AUCτ; for AUC / Cmax / C trough / CL/F: steady state, geometric mean (68% range)
# Description: For Regimen A, subjects received 500 μg oral roflumilast once daily (daily dose: one tablet of roflumilast 500 μg) from the morning of Day 2 to the morning of Day 18. […] For Regimen B, subjects received 24 μg formoterol for oral inhalation delivered by a DPI device (Foradil® P) twice daily, once in the morning and once in the evening from the morning of Day 2 to the evening of Day 18.
# Pre-dose blood samples for determination of trough levels were taken on Days 9 and 10 for Regimen A (morning only), and on Days 6 and 7 (morning and evening) for Regimen B. Blood samples (4.5 mL) were collected in heparinised tubes and plasma was obtained by centrifugation at 1550 g for 15 minutes. Plasma samples were stored at -20°C or below for roflumilast, and at -70°C for formoterol. Plasma concentrations of roflumilast and roflumilast N-oxide were determined using high-performance liquid chromatography coupled with tandem mass spectrometry (HPLC-MS/MS). […] Roflumilast and roflumilast N-oxide standard curves were valid up to 20 ng/mL and 40 ng/mL, respectively. Determination of roflumilast and roflumilast N-oxide was performed at Altana Pharma AG, Konstanz, Germany (Nycomed GmbH). Plasma concentrations of formoterol were determined using HPLC-MS/MS. The LLOQ in plasma was 0.4 pg/mL using a sample volume of 1.0 mL. […] Determination of formoterol was performed at pharm-analyt Labor GmbH, Baden, Austria, under the supervision of Altana Pharma AG(Nycomed GmbH).
# For roflumilast, roflumilast N-oxide and formoterol, the maximum plasma concentration (Cmax) was derived directly from the plasma concentrations. The AUC from time zero to the time of the last quantifiable concentration, which corresponded to the dosing interval of each analyte (AUC0-τ), was estimated using the linear trapezoidal method. Apparent clearance at steady state (CL/F; calculated by dose/AUCτ) was reported for roflumilast only. […] The calculation of tPDE4i was based on the equation described in Lahu et al..
# healthy subjects [2] = test: Digital 12-lead electrocardiography (HR, QT, QTc); assay type: in vivo, human
# Description: Digital 12-lead ECGs were recorded immediately after each ZCG recording. Tracings were analysed off-study by regimen-blinded qualified analysts, using previously reported methodology. For each time point, three cycles were measured with regard to the RR, PQ and QT-intervals [ms]. The means of the three measurements were used for the calculation of HR and HR-corrected QTc intervals, according to Bazett's equation (QTcB = QT/RR^1/2) and Fridericia's equation (QTcF = QT/RR^1/3).
# healthy subjects [3] = test: Adverse event monitoring; assay type: in vivo, human
# Excerpt: Blood and urine samples for conventional clinical laboratory safety tests were obtained at the screening visit, in the morning of each main profiling day, and on Day 19. Adverse events (AEs) were monitored throughout the study.
# healthy subjects [4] = tested on: healthy subjects; design: method as in earlier work; details: cited from earlier work
# [5] = Serum glucose concentration on profiling days; details: Regimen A, Day 11
# Description: During the main profiling days, blood was sampled at each ZCG time point for the determination of serum glucose and potassium concentrations.
# [6] = 500 μg, Regimen A Day 11 (roflumilast alone)
# [7] = Regimen A Day 18 (roflumilast plus formoterol)
# [8] = Regimen B Day 18 (formoterol plus roflumilast)
# [9] = Regimen A Day 11 (roflumilast alone)
smiles,measurement,setting,value
"O=C(Nc1c(Cl)cncc1Cl)c1ccc(OC(F)F)c(OCC2CC2)c1 [Roflumilast, 3-cyclopropylmethoxy-N-(3,5-dichloropyridin-4-yl)-4-(difluoromethoxy)benzamide]",steady-state AUC and Cmax values lower,[1]; Regimen B Day 18 (co-administered with formoterol) compared with Regimen A Day 11 or Day 18,10-15%
same,changes in peak concentration and exposure,[1]; concomitant inhaled formoterol compared with roflumilast alone,less than 1%
same,changes in steady-state pharmacokinetics when the other drug was added,"[1]; formoterol added to roflumilast, or roflumilast added to formoterol",no relevant changes
same,AUC,[1]; [6],35.8 ng·h/mL
same,Cmax,[1]; [6],6.89 ng/mL
same,AUC,[1]; [7],36.9 ng·h/mL
same,AUC,[1]; [8],31.8 ng·h/mL
same,Cmax,[1]; [7],6.43 ng/mL
same,Cmax,[1]; [8],5.92 ng/mL
same,C trough,[1]; [9],0.53 (0.33-0.85) μg/L
same,CL/F,[1]; [9],13.9 (10.8-17.9) L/h
same,C trough,[1]; [7],0.50 (0.29-0.86) μg/L
same,CL/F,[1]; [7],13.5 (10.3-17.7) L/h
same,C trough,[1]; [8],0.37 (0.18-0.77) μg/L
same,CL/F,[1]; [8],15.7 (10.4-23.5) L/h
same,HR (ECG),healthy subjects [2]; 12-lead ECG,slight increase
same,"QTc values, uncorrected or corrected using Bazett's or Fridericia's formula",healthy subjects [2]; 12-lead ECG,no clinically relevant changes
same,duration of the QT interval,healthy subjects [2]; 12-lead ECG,decrease
same,QT/QTc intervals,"healthy subjects [2]; all subjects, all regimens",below 450 ms
same,number of AEs,"healthy subjects [3]; Regimen A, Day 2 to Day 11",17 AEs
same,subjects who experienced AEs,"healthy subjects [3]; Regimen A, Day 2 to Day 11, n = 12",7 subjects
same,dizziness reports,"healthy subjects [3]; Regimen A, roflumilast alone",four
same,myalgia reports,"healthy subjects [3]; Regimen A, roflumilast alone",four
same,tremor,healthy subjects [3]; administered alone (Regimens A and B respectively),not observed
same,effect on cardiac repolarisation (QT/QTc interval),healthy subjects [4],no significant effect
same,median pre-dose serum glucose,[5],4.75 mmol/L
